Source: US20120171126A1, “NOVEL [3,2-c] HETEROARYL STEROIDS AS GLUCOCORTICOID RECEPTOR AGONISTS COMPOSITIONS AND USES THEREOF” (priority 2009, published 2012)
Like-named read-outs stand apart in the source and are kept apart here.

Test system: IL-8
Test: Glucocorticoid transrepression assay, IL-8 inhibition (TR)
Format: cell-based
Settings: Homo sapiens, NCl-H292 cells, TNFα 10 ng/ml; for Emax: read-out: IL-8 inhibition (TR) Emax % inhibition
Experimental: Human Lung epithelial cell line NCl-H292 cells were dissociated from stock flask using 0.05% trypsin/0.53 mM EDTA. Cells were suspended in complete medium and counted. Cells were plated in 96-well flat-bottom plates at 20K cells /well in 0.2 ml/well. Plates were incubated for 24-48 hours until cells were between 75-90% confluent. Medium was aspirated and replaced with medium containing various concentrations of steroids or antagonists. After 1 hour incubation at 37°, TNFα (10 ng/ml final concentration in 0.2 ml) was added and the cells incubated overnight. Control wells with and without TNF were included on each plate, as well as wells with TNF in addition to a maximum (10 μM) concentration of dexamethasone. The cell culture medium was sampled and IL-6 and IL-8 cytokine production was measured using the MSD Multi-Spot immunoassay.

## CC12Cc3cnn(-c4ccc(F)cc4)c3C=C1CCC1C2[C@@H](O)CC2(C)C1CC[C@]2(O)C(=O)NCc1nc2ccccc2o1 (stereo partly shown) [Compound 20]
Table 2
  IC50: 0.06 to 20 nM
  Emax: > 80%

## Cn1ncc2c1C=C1CCC3C([C@@H](O)CC4(C)C3CC[C@]4(O)C(=O)CSc3nc4ccccc4n3C)C1(C)C2 (stereo partly shown) [Compound 20]
Table 1
  IC50: 66 to 400 nM
  Emax: 60 to 70%

## Cn1c(NC(=O)[C@@]2(O)CCC3C4CCC5=Cc6c(cnn6-c6ccc(F)cc6)CC5(C)C4[C@@H](O)CC32C)nc2ccccc21 (stereo partly shown) [Compound 21]
Table 2
  IC50: 0.06 to 20 nM
  Emax: > 80%

## Cn1ncc2c1C=C1CCC3C([C@@H](O)CC4(C)C3CC[C@]4(O)C(=O)CSc3nc4ccccc4s3)C1(C)C2 (stereo partly shown) [Compound 21]
Table 1
  Emax: < 60%

## CC12Cc3cnn(-c4ccc(F)cc4)c3C=C1CCC1C2[C@@H](O)CC2(C)C1CC[C@]2(O)C(=O)N[C@@H](CO)Cc1ccc2ccccc2c1 (stereo partly shown) [Compound 22]
Table 2
  IC50: 0.06 to 20 nM
  Emax: > 80%

## Cn1ncc2c1C=C1CCC3C([C@@H](O)CC4(C)C3CC[C@]4(O)C(=O)CSc3nc4ccccc4o3)C1(C)C2 (stereo partly shown) [Compound 22]
Table 1
  IC50: 66 to 400 nM
  Emax: < 60%

## CC(NC(=O)[C@@]1(O)CCC2C3CCC4=Cc5c(cnn5-c5ccc(F)cc5)CC4(C)C3[C@@H](O)CC21C)c1nc2ccccc2s1 (stereo partly shown) [Compound 23]
Table 2
  IC50: 0.06 to 20 nM
  Emax: > 80%

## Cn1ncc2c1C=C1CCC3C([C@@H](O)CC4(C)C3CC[C@]4(O)C(=O)CSc3ccc4ccccc4n3)C1(C)C2 (stereo partly shown) [Compound 23]
Table 1
  IC50: 66 to 400 nM
  Emax: 60 to 70%

## CC12Cc3cnn(-c4ccc(F)cc4)c3C=C1CCC1C2[C@@H](O)CC2(C)C1CC[C@]2(O)C(=O)N[C@H](CO)Cc1ccccc1 (stereo partly shown) [Compound 24]
Table 2
  IC50: 0.06 to 20 nM
  Emax: > 80%

## Cn1ncc2c1C=C1CCC3C([C@@H](O)CC4(C)C3CC[C@]4(O)C(=O)CSc3nc4ccccc4[nH]3)C1(C)C2 (stereo partly shown) [Compound 24]
Table 1
  IC50: 66 to 400 nM
  Emax: 70 to 80%

## COc1ccc2sc(SCC(=O)[C@@]3(O)CCC4C5CCC6=Cc7c(cnn7C)CC6(C)C5[C@@H](O)CC43C)nc2c1 (stereo partly shown) [Compound 25]
Table 1
  Emax: < 60%

## Cn1ncc2c1C=C1CCC3C([C@@H](O)CC4(C)C3CC[C@]4(O)C(=O)CSc3ncccn3)C1(C)C2 (stereo partly shown) [Compound 26]
Table 1
  Emax: < 60%

## Cn1ncc2c1C=C1CCC3C([C@@H](O)CC4(C)C3CC[C@]4(O)C(=O)CSc3nc4cccnc4s3)C1(C)C2 (stereo partly shown) [Compound 28]
Table 1
  Emax: < 60%

## Cn1ncc2c1C=C1CCC3C([C@@H](O)CC4(C)C3CC[C@]4(O)C(=O)CSc3nc4ncccc4o3)C1(C)C2 (stereo partly shown) [Compound 29]
Table 1
  IC50: 401 to 1000 nM
  Emax: < 60%

## Cn1ncc2c1C=C1CCC3C([C@@H](O)CC4(C)C3CC[C@]4(O)C(=O)CSc3cnc4ccccc4n3)C1(C)C2 (stereo partly shown) [Compound 30]
Table 1
  IC50: 66 to 400 nM
  Emax: 60 to 70%

## Cc1ccnc(SCC(=O)[C@@]2(O)CCC3C4CCC5=Cc6c(cnn6C)CC5(C)C4[C@@H](O)CC32C)n1 (stereo partly shown) [Compound 31]
Table 1
  Emax: < 60%

## Cn1ncc2c1C=C1CCC3C([C@@H](O)CC4(C)C3CC[C@]4(O)C(=O)CSc3ccccn3)C1(C)C2 (stereo partly shown) [Compound 32]
Table 1
  Emax: < 60%

## Cc1cccc(SCC(=O)[C@@]2(O)CCC3C4CCC5=Cc6c(cnn6C)CC5(C)C4[C@@H](O)CC32C)n1 (stereo partly shown) [Compound 33]
Table 1
  IC50: 66 to 400 nM
  Emax: < 60%

## Cn1c(SCC(=O)[C@@]2(O)CCC3C4CCC5=Cc6c(cnn6-c6ccccn6)CC5(C)C4[C@@H](O)CC32C)nc2ccccc21 (stereo partly shown) [Compound 34]
Table 1
  IC50: 66 to 400 nM
  Emax: 60 to 70%

## CC12Cc3cnn(-c4ccccn4)c3C=C1CCC1C2[C@@H](O)CC2(C)C1CC[C@]2(O)C(=O)CSc1nc2ccccc2s1 (stereo partly shown) [Compound 35]
Table 1
  IC50: 66 to 400 nM
  Emax: 60 to 70%

## CC12Cc3cnn(-c4ccccn4)c3C=C1CCC1C2[C@@H](O)CC2(C)C1CC[C@]2(O)C(=O)CSc1nc2ccccc2o1 (stereo partly shown) [Compound 36]
Table 1
  IC50: 0.06 to 20 nM
  Emax: > 80%

## CC12Cc3cnn(-c4ccccn4)c3C=C1CCC1C2[C@@H](O)CC2(C)C1CC[C@]2(O)C(=O)CSc1ccc2ccccc2n1 (stereo partly shown) [Compound 37]
Table 1
  Emax: < 60%

## CC12Cc3cnn(-c4ccccn4)c3C=C1CCC1C2[C@@H](O)CC2(C)C1CC[C@]2(O)C(=O)CSc1nc2ccccc2[nH]1 (stereo partly shown) [Compound 38]
Table 1
  IC50: 401 to 1000 nM
  Emax: 60 to 70%

## COc1ccc2sc(SCC(=O)[C@@]3(O)CCC4C5CCC6=Cc7c(cnn7-c7ccccn7)CC6(C)C5[C@@H](O)CC43C)nc2c1 (stereo partly shown) [Compound 39]
Table 1
  Emax: < 60%

## CC12Cc3cnn(-c4ccccn4)c3C=C1CCC1C2[C@@H](O)CC2(C)C1CC[C@]2(O)C(=O)CSc1ncccn1 (stereo partly shown) [Compound 40]
Table 1
  IC50: 66 to 400 nM
  Emax: 60 to 70%

## Cn1cnnc1SCC(=O)[C@@]1(O)CCC2C3CCC4=Cc5c(cnn5-c5ccccn5)CC4(C)C3[C@@H](O)CC21C (stereo partly shown) [Compound 41]
Table 1
  Emax: < 60%

## CC12Cc3cnn(-c4ccccn4)c3C=C1CCC1C2[C@@H](O)CC2(C)C1CC[C@]2(O)C(=O)CSc1nc2cccnc2s1 (stereo partly shown) [Compound 42]
Table 1
  IC50: 66 to 400 nM
  Emax: 70 to 80%

## CC12Cc3cnn(-c4ccccn4)c3C=C1CCC1C2[C@@H](O)CC2(C)C1CC[C@]2(O)C(=O)CSc1nc2ncccc2o1 (stereo partly shown) [Compound 43]
Table 1
  IC50: 21 to 65 nM
  Emax: 70 to 80%

## CC12Cc3cnn(-c4ccccn4)c3C=C1CCC1C2[C@@H](O)CC2(C)C1CC[C@]2(O)C(=O)CSc1cnc2ccccc2n1 (stereo partly shown) [Compound 44]
Table 1
  IC50: 401 to 1000 nM
  Emax: < 60%

## Cc1ccnc(SCC(=O)[C@@]2(O)CCC3C4CCC5=Cc6c(cnn6-c6ccccn6)CC5(C)C4[C@@H](O)CC32C)n1 (stereo partly shown) [Compound 45]
Table 1
  IC50: 21 to 65 nM
  Emax: > 80%

## CC12Cc3cnn(-c4ccccn4)c3C=C1CCC1C2[C@@H](O)CC2(C)C1CC[C@]2(O)C(=O)CSc1ccccn1 (stereo partly shown) [Compound 46]
Table 1
  IC50: 66 to 400 nM
  Emax: 70 to 80%

## Cc1cccc(SCC(=O)[C@@]2(O)CCC3C4CCC5=Cc6c(cnn6-c6ccccn6)CC5(C)C4[C@@H](O)CC32C)n1 (stereo partly shown) [Compound 47]
Table 1
  IC50: 66 to 400 nM
  Emax: > 80%

## Cn1c(SCC(=O)[C@@]2(O)CCC3C4CCC5=Cc6c(cnn6CCC#N)CC5(C)C4[C@@H](O)CC32C)nc2ccccc21 (stereo partly shown) [Compound 48]
Table 1
  IC50: 66 to 400 nM
  Emax: < 60%

## CC12Cc3cnn(CCC#N)c3C=C1CCC1C2[C@@H](O)CC2(C)C1CC[C@]2(O)C(=O)CSc1nc2ccccc2s1 (stereo partly shown) [Compound 49]
Table 1
  Emax: < 60%

## CC12Cc3cnn(CCC#N)c3C=C1CCC1C2[C@@H](O)CC2(C)C1CC[C@]2(O)C(=O)CSc1nc2ccccc2o1 (stereo partly shown) [Compound 50]
Table 1
  IC50: 66 to 400 nM
  Emax: 70 to 80%

## CC12Cc3cnn(CCC#N)c3C=C1CCC1C2[C@@H](O)CC2(C)C1CC[C@]2(O)C(=O)CSc1ccc2ccccc2n1 (stereo partly shown) [Compound 51]
Table 1
  Emax: < 60%

## CC12Cc3cnn(CCC#N)c3C=C1CCC1C2[C@@H](O)CC2(C)C1CC[C@]2(O)C(=O)CSc1nc2ccccc2[nH]1 (stereo partly shown) [Compound 52]
Table 1
  IC50: 401 to 1000 nM
  Emax: < 60%

## CC12Cc3cnn(CCC#N)c3C=C1CCC1C2[C@@H](O)CC2(C)C1CC[C@]2(O)C(=O)CSc1ncccn1 (stereo partly shown) [Compound 54]
Table 1
  IC50: 401 to 1000 nM
  Emax: < 60%

## Cn1cnnc1SCC(=O)[C@@]1(O)CCC2C3CCC4=Cc5c(cnn5CCC#N)CC4(C)C3[C@@H](O)CC21C (stereo partly shown) [Compound 55]
Table 1
  Emax: < 60%

## CC12Cc3cnn(CCC#N)c3C=C1CCC1C2[C@@H](O)CC2(C)C1CC[C@]2(O)C(=O)CSc1nc2cccnc2s1 (stereo partly shown) [Compound 56]
Table 1
  Emax: < 60%

## CC12Cc3cnn(CCC#N)c3C=C1CCC1C2[C@@H](O)CC2(C)C1CC[C@]2(O)C(=O)CSc1cnc2ccccc2n1 (stereo partly shown) [Compound 58]
Table 1
  Emax: < 60%

## Cc1ccnc(SCC(=O)[C@@]2(O)CCC3C4CCC5=Cc6c(cnn6CCC#N)CC5(C)C4[C@@H](O)CC32C)n1 (stereo partly shown) [Compound 59]
Table 1
  IC50: 66 to 400 nM
  Emax: 60 to 70%

## Cc1cccc(SCC(=O)[C@@]2(O)CCC3C4CCC5=Cc6c(cnn6CCC#N)CC5(C)C4[C@@H](O)CC32C)n1 (stereo partly shown) [Compound 61]
Table 1
  IC50: 66 to 400 nM
  Emax: 70 to 80%

## CC12Cc3cnn(C(C)(C)C)c3C=C1CCC1C2[C@@H](O)CC2(C)C1CC[C@]2(O)C(=O)CSc1nc2ccccc2s1 (stereo partly shown) [Compound 62]
Table 1
  Emax: < 60%

## Cn1c(SCC(=O)[C@@]2(O)CCC3C4CCC5=Cc6c(cnn6C(C)(C)C)CC5(C)C4[C@@H](O)CC32C)nc2ccccc21 (stereo partly shown) [Compound 63]
Table 1
  Emax: < 60%

## CC12Cc3cnn(C(C)(C)C)c3C=C1CCC1C2[C@@H](O)CC2(C)C1CC[C@]2(O)C(=O)CSc1nc2cccnc2s1 (stereo partly shown) [Compound 64]
Table 1
  Emax: < 60%

## CC12Cc3cnn(C(C)(C)C)c3C=C1CCC1C2[C@@H](O)CC2(C)C1CC[C@]2(O)C(=O)CSc1nc2ncccc2o1 (stereo partly shown) [Compound 65]
Table 1
  Emax: < 60%

## CC12Cc3cnn(C(C)(C)C)c3C=C1CCC1C2[C@@H](O)CC2(C)C1CC[C@]2(O)C(=O)CSc1ccccn1 (stereo partly shown) [Compound 66]
Table 1
  Emax: < 60%

## CC12Cc3cnn(C(C)(C)C)c3C=C1CCC1C2[C@@H](O)CC2(C)C1CC[C@]2(O)C(=O)CSc1ccc2ccccc2n1 (stereo partly shown) [Compound 67]
Table 1
  Emax: < 60%

## CC12Cc3cnn(C(C)(C)C)c3C=C1CCC1C2[C@@H](O)CC2(C)C1CC[C@]2(O)C(=O)CSc1nc2ccccc2[nH]1 (stereo partly shown) [Compound 68]
Table 1
  Emax: < 60%

## CC12Cc3cnn(C4CCOCC4)c3C=C1CCC1C2[C@@H](O)CC2(C)C1CC[C@]2(O)C(=O)CSc1nc2ccccc2s1 (stereo partly shown) [Compound 69]
Table 1
  IC50: 66 to 400 nM
  Emax: 70 to 80%

## Cn1c(SCC(=O)[C@@]2(O)CCC3C4CCC5=Cc6c(cnn6C6CCOCC6)CC5(C)C4[C@@H](O)CC32C)nc2ccccc21 (stereo partly shown) [Compound 70]
Table 1
  IC50: 21 to 65 nM
  Emax: > 80%

## CC12Cc3cnn(C4CCOCC4)c3C=C1CCC1C2[C@@H](O)CC2(C)C1CC[C@]2(O)C(=O)CSc1nc2ncccc2o1 (stereo partly shown) [Compound 72]
Table 1
  IC50: 21 to 65 nM
  Emax: > 80%
